For assay [1], the target named is T1, human recombinant adrenergic α2A receptor (Homo sapiens, UniProt P08913).
T1 construct: expressed in transfected cells; host or cells: insect Sf9 cells
T1 sequence (P08913 1-465): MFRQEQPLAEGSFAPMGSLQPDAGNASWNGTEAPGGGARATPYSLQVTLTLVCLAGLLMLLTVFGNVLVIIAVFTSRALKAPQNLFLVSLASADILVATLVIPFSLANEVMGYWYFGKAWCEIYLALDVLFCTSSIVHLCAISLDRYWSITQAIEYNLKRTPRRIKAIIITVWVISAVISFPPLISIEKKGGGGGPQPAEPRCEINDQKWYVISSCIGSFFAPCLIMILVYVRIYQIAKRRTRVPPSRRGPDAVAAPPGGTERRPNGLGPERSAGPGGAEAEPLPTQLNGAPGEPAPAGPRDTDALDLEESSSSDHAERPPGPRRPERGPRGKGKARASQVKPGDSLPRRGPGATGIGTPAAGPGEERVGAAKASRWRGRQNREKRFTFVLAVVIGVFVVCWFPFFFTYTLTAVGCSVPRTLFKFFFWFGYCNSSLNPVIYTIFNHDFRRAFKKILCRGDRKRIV
As to the kind of experiment: Radioligand binding, adrenergic α2A receptor ([3H]MK-912). The note with it: 0.1 μM compound; Sf9 cells; 1 nM [3H]MK-912; read-out: Percentage inhibition of ligand binding, Adrenergic α2A. Put shortly:
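Percent inhibition of specific [3H]MK-912 (1 nM) binding measured by filtration counting, compounds tested at ≤1 μM in 1% DMSO. Receptor: human α2A from Sf9 cells; incubation 60 min, 25 °C, pH 7.4; 10 μM WB-4101 defined nonspecific binding.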

The target of assay [2] is T2, human recombinant adrenergic α2B receptor (Homo sapiens, UniProt P18089).
T2 construct: expressed in transfected cells; host or cells: CHO-K1
T2 sequence (P18089 1-450): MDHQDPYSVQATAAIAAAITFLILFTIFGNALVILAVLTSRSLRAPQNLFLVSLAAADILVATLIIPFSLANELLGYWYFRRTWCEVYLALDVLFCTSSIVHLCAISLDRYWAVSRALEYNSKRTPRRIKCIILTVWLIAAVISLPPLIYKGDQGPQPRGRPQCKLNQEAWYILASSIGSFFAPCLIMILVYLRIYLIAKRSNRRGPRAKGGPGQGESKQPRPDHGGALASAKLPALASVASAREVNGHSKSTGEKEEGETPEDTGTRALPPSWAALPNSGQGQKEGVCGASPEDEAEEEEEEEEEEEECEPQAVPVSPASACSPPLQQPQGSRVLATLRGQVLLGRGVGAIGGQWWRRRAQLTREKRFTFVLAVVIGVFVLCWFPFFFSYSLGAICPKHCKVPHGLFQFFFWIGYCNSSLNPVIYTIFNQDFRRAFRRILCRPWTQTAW
Kind of assay: Radioligand binding, adrenergic α2B receptor ([3H]Rauwolscine). The following applies: 0.1 μM compound, CHO-K1 cells, read-out: Percentage inhibition of ligand binding, Adrenergic α2B. Put shortly: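 Percent inhibition of specific [3H]Rauwolscine (2.5 nM) binding, compounds at ≤1 μM, 1% DMSO vehicle, 10 μM prazosin defining nonspecific. Receptor: human α2B expressed in CHO-K1 cells, 60 min incubation at 25 °C in Tris-HCl pH 7.4 buffer (MgCl2, EDTA, BSA); filtered, washed, counted.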

The target in assay [3] is T3, human recombinant adrenergic α1D receptor (Homo sapiens, UniProt P25100).
T3 construct: expressed in transfected cells; host or cells: HEK-293
T3 sequence (P25100 1-572): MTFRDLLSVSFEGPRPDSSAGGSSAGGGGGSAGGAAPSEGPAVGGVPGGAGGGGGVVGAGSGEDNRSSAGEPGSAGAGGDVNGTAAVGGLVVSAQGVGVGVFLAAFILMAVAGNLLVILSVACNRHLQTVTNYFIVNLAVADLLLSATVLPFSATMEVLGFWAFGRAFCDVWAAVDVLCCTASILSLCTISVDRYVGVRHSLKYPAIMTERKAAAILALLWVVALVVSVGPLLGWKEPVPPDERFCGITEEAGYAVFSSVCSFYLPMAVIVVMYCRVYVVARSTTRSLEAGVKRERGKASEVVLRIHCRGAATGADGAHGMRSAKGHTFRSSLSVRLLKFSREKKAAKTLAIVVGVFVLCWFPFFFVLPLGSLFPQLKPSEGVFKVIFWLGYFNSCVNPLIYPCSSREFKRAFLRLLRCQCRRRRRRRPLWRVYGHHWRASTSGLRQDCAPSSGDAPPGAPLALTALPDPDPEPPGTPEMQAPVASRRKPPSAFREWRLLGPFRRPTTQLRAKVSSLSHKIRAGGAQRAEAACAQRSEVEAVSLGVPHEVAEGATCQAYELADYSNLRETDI
Kind of assay: Radioligand binding, adrenergic α1D receptor ([3H]Prazosin). The note with it: 0.1 μM compound; HEK-293 cells; 0.6 nM [3H]Prazosin; read-out: Percentage inhibition of ligand binding, Adrenergic α1D. As for the experimental part:
Compounds were incubated with 0.6 nM [3H]Prazosin for 60 min at 25° C. Non-specific binding was estimated in the presence of 10 μM phentolamine. Receptor proteins were filtered and washed, the filters were then counted to determine [3H]Prazosin specifically bound. Compounds were screened at 1 μM or lower, using 1% DMSO as vehicle. Biochemical assay results are presented as the percent inhibition of specific binding in Table 2.

The target in assay [4] is T4, rat adrenergic α1B receptor (Rattus norvegicus, UniProt P15823).
T4 construct: rat adrenergic α1B receptor obtained from Wistar Rat liver; from tissue; host or cells: Wistar rat liver
T4 sequence (P15823 1-515): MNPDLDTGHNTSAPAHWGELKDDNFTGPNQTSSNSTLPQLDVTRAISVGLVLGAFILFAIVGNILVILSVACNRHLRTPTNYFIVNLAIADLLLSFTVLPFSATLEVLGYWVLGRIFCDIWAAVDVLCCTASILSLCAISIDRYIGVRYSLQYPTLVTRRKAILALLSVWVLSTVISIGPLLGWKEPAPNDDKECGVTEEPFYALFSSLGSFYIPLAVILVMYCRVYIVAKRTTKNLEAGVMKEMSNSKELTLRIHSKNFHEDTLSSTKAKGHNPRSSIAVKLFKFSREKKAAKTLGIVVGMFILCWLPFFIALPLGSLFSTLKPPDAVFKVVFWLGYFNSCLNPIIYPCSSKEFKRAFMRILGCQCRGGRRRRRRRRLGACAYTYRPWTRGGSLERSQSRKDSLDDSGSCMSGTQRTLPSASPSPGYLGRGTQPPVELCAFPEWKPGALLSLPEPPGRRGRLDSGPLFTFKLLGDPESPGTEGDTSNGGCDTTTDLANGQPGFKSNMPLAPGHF
Kind of assay: Radioligand binding, adrenergic α1B receptor ([3H]Prazosin). The following applies: 0.1 μM compound, Wistar rat liver, read-out: Percentage inhibition of ligand binding, Adrenergic α1B. Put shortly:
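Wistar rat liver α1B receptor preparation incubated with 0.25 nM [3H]prazosin and compound for 60 min at 25° C in 50 mM Tris-HCl pH 7.4, 0.5 mM EDTA; nonspecific binding defined with 10 μM phentolamine.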

What is called inhibition is the change of the read-out against control, counted positive when it falls.

Regarding `Cc1ccc2c(c1)c1c(n2-c2cscc2-c2cnn(C)c2)CCN(C)C1` [Compound 30], the inhibition at 0.1 µM in assay [1] came to 42%; in assay [2] it was 86%; in assay [3] it was 17%; in assay [4], 32%.

Regarding `Cc1ccc2c(c1)c1c(n2-c2cccc(-c3sccc3C)c2)CCN(C)C1` [Compound 43, 2,8-dimethyl-5-(3-(3-methylthiophen-2-yl)phenyl)-2,3,4,5-tetrahydro-1H-pyrido[4,3-b]indole], the inhibition at 0.1 µM stood at 31% in assay [1], 6% in assay [2], 3% in assay [3] and 9% in assay [4].

`Cc1ccc2c(c1)c1c(n2-c2ccccc2-c2ccc(O)nc2)CCN(C)C1` [Compound No. 80, 5-(2-(2,8-dimethyl-3,4-dihydro-1H-pyrido[4,3-b]indol-5(2H)-yl)phenyl)pyridin-2-ol]: the inhibition at 0.1 µM in assay [1] stood at 12%; in assay [2] it was 27%; in assay [3] it was 23%; in assay [4], 9%.

On to `Cc1ccc2c(c1)c1c(n2-c2ccccc2-c2ccnn2C)CCN(C)C1` [Compound 32], for which the inhibition at 0.1 µM in assay [1] is 72%; in assay [2], 80%; in assay [3], 65%; in assay [4], 73%.

For `Cc1ccc2c(c1)c1c(n2-c2ccc(-c3cccc4[nH]ncc34)cn2)CCN(C)C1` [Compound No. 147, 5-(5-(1H-indazol-4-yl)pyridin-2-yl)-2,8-dimethyl-2,3,4,5-tetrahydro-1H-pyrido[4,3-b]indole], the inhibition at 0.1 µM in assay [1] stood at 46%; in assay [2] it was 43%; in assay [3], 61%; in assay [4] it was 72%.

In the case of `Cc1ccc2c(c1)c1c(n2-c2cnc3ccccc3c2)CCN(C)C1` [Compound No. 88, 2,8-dimethyl-5-quinolin-3-yl-2,3,4,5-tetrahydro-1H-pyrido[4,3-b]indole], the inhibition at 0.1 µM in assay [1] was 15%; in assay [2] it was 80%; in assay [3], 20%; in assay [4], 36%.

Turning to `Cc1ccc2c(c1)c1c(n2-c2cscc2-c2cncc3ccccc23)CCN(C)C1` [Compound 34], the inhibition at 0.1 µM amounted to 28% in assay [1], 1% in assay [2], 18% in assay [3] and 16% in assay [4].

Turning to `Cc1ccc2c(c1)c1c(n2-c2cccc(-c3cc4ccccc4s3)c2)CCN(C)C1` [Compound 51, 5-(3-(benzo[b]thiophen-2-yl)phenyl)-2,8-dimethyl-2,3,4,5-tetrahydro-1H-pyrido[4,3-b]indole], the inhibition at 0.1 µM in assay [1] turned out to be 27%; in assay [2], 7%; in assay [3], 12%; in assay [4], 10%.

On to `Cc1ccc2c(c1)c1c(n2-c2ccccc2-c2ccc(C)nc2)CCN(C)C1` [Compound 59, 2,8-dimethyl-5-(2-(6-methylpyridin-3-yl)phenyl)-2,3,4,5-tetrahydro-1H-pyrido[4,3-b]indole], for which the inhibition at 0.1 µM was 77% in assay [1], 91% in assay [2], 65% in assay [3] and 47% in assay [4].

Regarding `Cc1ccc2c(c1)c1c(n2-c2ccc(-c3cnn(C)c3)cn2)CCN(C)C1` [Compound No. 134, 2,8-dimethyl-5-(5-(1-methyl-1H-pyrazol-4-yl)pyridin-2-yl)-2,3,4,5-tetrahydro-1H-pyrido[4,3-b]indole], the inhibition at 0.1 µM in assay [1] stood at 38%; in assay [2], 73%; in assay [3], 30%; in assay [4] it was 43%.

On to `Cc1ccc2c(c1)c1c(n2-c2ccc3ccncc3c2)CCN(C)C1` [Compound No. 74, 5-(isoquinolin-7-yl)-2,8-dimethyl-2,3,4,5-tetrahydro-1H-pyrido[4,3-b]indole], for which the inhibition at 0.1 µM in assay [1] was found to be 38%; in assay [2] it was 70%; in assay [3], 18%; in assay [4] it was 41%.

`Cc1ccc2c(c1)c1c(n2-c2cccs2)CCN(C)C1` [Compound 16, 2,8-dimethyl-5-thiophen-2-yl-2,3,4,5-tetrahydro-1H-pyrido[4,3-b]indole]: the inhibition at 0.1 µM is -1% in assay [1], 16% in assay [2], 16% in assay [3] and 8% in assay [4].

Consider `Cc1ccc2c(c1)c1c(n2-c2ccc(-c3cccnc3)cn2)CCN(C)C1` [Compound No. 133, 5-(3,3′-bipyridin-6-yl)-2,8-dimethyl-2,3,4,5-tetrahydro-1H-pyrido[4,3-b]indole], for which the inhibition at 0.1 µM stood at 31% in assay [1], 77% in assay [2], 53% in assay [3] and 63% in assay [4].

As to `Cc1ccc2c(c1)c1c(n2-c2ccc(-c3ccc(F)nc3)cn2)CCN(C)C1` [Compound No. 142, 5-(6′-fluoro-3,3′-bipyridin-6-yl)-2,8-dimethyl-2,3,4,5-tetrahydro-1H-pyrido[4,3-b]indole], the inhibition at 0.1 µM in assay [1] was determined as 59%; in assay [2], 91%; in assay [3], 78%; in assay [4], 83%.

The values above are taken from patent publication US20140155384A1, “COMPOUNDS AND METHODS OF TREATING DIABETES” (Medivation Technologies, Inc., priority 2011, published 2014).
